In paper PMC11288027, “Exploring novel microbial metabolites and drugs for inhibiting Clostridioides difficile” (mSphere, 2024):
Values after ≈ are worked out from the molar mass of the structure shown. Where a name gives a salt, the structure may show the parent alone. Read-outs that look alike come from different tables or passages of the source.

Columns and labels:
[1] = tested on: C. difficile clinical isolates; assay: MIC against a panel of 20 C. difficile clinical isolates (broth microdilution); type: cell-based, Clostridioides difficile; settings: Clostridioides difficile; for MIC50: concentration that inhibited 50% of the 20 C. difficile clinical isolates
[2] = tested on: B. fragilis; assay: MIC against human gut microbiota; type: cell-based, Bacteroides fragilis; settings: for MIC: Bacteroides fragilis, read-out: minimum inhibitory concentration (MIC)
[3] = tested on: B. dorei; assay: MIC against human gut microbiota; type: cell-based, Bacteroides dorei; settings: Phocaeicola dorei, read-out: minimum inhibitory concentration (MIC)
[4] = tested on: Bif. breve; assay: MIC against human gut microbiota; type: cell-based, Bifidobacterium breve; settings: Bifidobacterium breve
[5] = tested on: Bif. angulatum; assay: MIC against human gut microbiota; type: cell-based, Bifidobacterium angulatum; settings: Bifidobacterium angulatum, read-out: minimum inhibitory concentration (MIC)
[6] = tested on: Bif. adolescentis; assay: MIC against human gut microbiota; type: cell-based, Bifidobacterium adolescentis; settings: Bifidobacterium adolescentis, read-out: minimum inhibitory concentration (MIC)
[7] = tested on: Bif. longum; assay: MIC against human gut microbiota; type: cell-based, Bifidobacterium longum; settings: Bifidobacterium longum, read-out: minimum inhibitory concentration (MIC)
[8] = tested on: E. faecium; assay: MIC against human gut microbiota; type: cell-based, Enterococcus faecium; settings: Enterococcus faecium, read-out: minimum inhibitory concentration (MIC)
[9] = tested on: E. fecalis; assay: MIC against human gut microbiota; type: cell-based, Enterococcus faecalis; settings: Enterococcus faecalis, read-out: minimum inhibitory concentration (MIC)
[10] = tested on: L. casei; assay: MIC against human gut microbiota; type: cell-based; settings: Lacticaseibacillus casei
[11] = tested on: L. brevis; assay: MIC against human gut microbiota; type: cell-based, Lactobacillus brevis; settings: Levilactobacillus brevis
[12] = tested on: L. rhamanosus; assay: MIC against human gut microbiota; type: cell-based, Lactobacillus rhamnoosus; settings: Lactobacillus
[13] = tested on: C. difficile ATCC BAA-1870; assay: Time-kill assay at 5 × MIC; settings: C. difficile ATCC BAA-1870, ~10^6 CFU/mL, up to 24 h
[14] = tested on: C. difficile ATCC BAA-1870; assay: MIC of active hits by broth microdilution; settings: for MIC: Clostridioides difficile, ATCCBAA1870, 48 h
[15] = C. difficile ATCC BAA-1870, 48 h anaerobic

## CN[C@H](CC(C)C)C(=O)N[C@H]1C(=O)N[C@@H](CC(N)=O)C(=O)N[C@H]2C(=O)N[C@H]3C(=O)N[C@H](C(=O)N[C@H](C(=O)O)c4cc(O)cc(O)c4-c4cc3ccc4O)[C@H](O)c3ccc(c(Cl)c3)Oc3cc2cc(c3O[C@@H]2O[C@H](CO)[C@@H](O)[C@H](O)[C@H]2O[C@H]2C[C@](C)(N)[C@H](O)[C@H](C)O2)Oc2ccc(cc2Cl)[C@H]1O [Vancomycin, vancomycin hydrochloride]
[1]
  MIC90: 2 µg/mL
  MIC50: 0.5 µg/mL
[1]; 48 h
  MIC50: 0.5 µg/mL
[1]; ATCC630, read-out: minimum inhibitory concentration (MIC), C. difficile ATCC 630
  MIC: 0.25 µg/mL
[1]; ATCC43255, read-out: minimum inhibitory concentration (MIC), C. difficile ATCC 43255
  MIC: 0.25 µg/mL
[1]; ATCCBAA1870, read-out: minimum inhibitory concentration (MIC), C. difficile ATCC BAA-1870 (Ribotype-027), purchased compounds, panel test
  MIC: 1 µg/mL
[1]; read-out: minimum inhibitory concentration (MIC), C. difficile CD-1 (Ribotype-027)
  MIC: 2 µg/mL
[1]; read-out: minimum inhibitory concentration (MIC), C. difficile CD-6 (Ribotype-027)
  MIC: 2 µg/mL
[1]; read-out: minimum inhibitory concentration (MIC), C. difficile CD-10(Ribotype-027)
  MIC: 2 µg/mL
[1]; read-out: minimum inhibitory concentration (MIC), C. difficile CD-12
  MIC: 1 µg/mL
[1]; read-out: minimum inhibitory concentration (MIC), C. difficile CD-13
  MIC: 0.5 µg/mL
[1]; read-out: minimum inhibitory concentration (MIC), C. difficile CD-15
  MIC: 0.5 µg/mL
[1]; read-out: minimum inhibitory concentration (MIC), C. difficile CD-22
  MIC: 0.5 µg/mL
[1]; read-out: minimum inhibitory concentration (MIC), C. difficile CD-23
  MIC: 0.25 µg/mL
[1]; read-out: minimum inhibitory concentration (MIC), C. difficile CD-24
  MIC: 0.25 µg/mL
[1]; read-out: minimum inhibitory concentration (MIC), C. difficile CD-26 (Ribotype-027)
  MIC: 1 µg/mL
[1]; read-out: minimum inhibitory concentration (MIC), C. difficile CD-28
  MIC: 0.5 µg/mL
[1]; read-out: minimum inhibitory concentration (MIC), C. difficile CD-29 (Ribotype-027)
  MIC: 1 µg/mL
[1]; read-out: minimum inhibitory concentration (MIC), C. difficile CD-30
  MIC: 0.5 µg/mL
[1]; read-out: minimum inhibitory concentration (MIC), C. difficile NR-49302
  MIC: 0.5 µg/mL
[1]; read-out: minimum inhibitory concentration (MIC), C. difficile NR-49304
  MIC: 0.5 µg/mL
[1]; read-out: minimum inhibitory concentration (MIC), C. difficile NR-49308
  MIC: 0.5 µg/mL
[1]; read-out: minimum inhibitory concentration (MIC), C. difficile NR-49319
  MIC: 0.5 µg/mL
[2]
  minimum inhibitory concentration (MIC): 32 µg/mL
  MIC: 16 µg/mL
[3]
  MIC: 16 µg/mL
[4]; ATCC15700, read-out: minimum inhibitory concentration (MIC)
  MIC: ≤ 2 µg/mL
[5]
  MIC: ≤ 2 µg/mL
[6]
  MIC: ≤ 2 µg/mL
[7]
  MIC: ≤ 2 µg/mL
[8]
  MIC: ≤ 2 µg/mL
[9]
  MIC: > 256 µg/mL
[10]; ATCC334, read-out: minimum inhibitory concentration (MIC)
  MIC: > 256 µg/mL
[11]; ATCC14864, read-out: minimum inhibitory concentration (MIC)
  MIC: > 256 µg/mL
[12]; ATCC53103, read-out: minimum inhibitory concentration (MIC)
  MIC: > 256 µg/mL
[13]
  time to eliminate / clear C. difficile: ≤ 24 h
[14]
  MIC: 1 µg/mL

## Cc1ccc2c(Cl)cc(Cl)c(O)c2n1 [Chlorquinaldol]
[1]; 48 h, read-out: MIC50
  MIC50: 0.125 µg/mL (≈ 0.548 µM)
[1]; ATCC630, C. difficile ATCC 630, read-out: minimum inhibitory concentration (MIC)
  MIC: 0.25 µg/mL (≈ 1.1 µM)
[1]; ATCC43255, C. difficile ATCC 43255, read-out: minimum inhibitory concentration (MIC)
  MIC: 0.06 µg/mL (≈ 0.263 µM)
[1]; ATCCBAA1870, C. difficile ATCC BAA-1870 (Ribotype-027), purchased compounds, panel test, read-out: minimum inhibitory concentration (MIC)
  MIC: 0.125 µg/mL (≈ 0.548 µM)
[1]; C. difficile CD-1 (Ribotype-027), read-out: minimum inhibitory concentration (MIC)
  MIC: 0.125 µg/mL (≈ 0.548 µM)
[1]; C. difficile CD-6 (Ribotype-027), read-out: minimum inhibitory concentration (MIC)
  MIC: 0.125 µg/mL (≈ 0.548 µM)
[1]; C. difficile CD-10(Ribotype-027), read-out: minimum inhibitory concentration (MIC)
  MIC: 0.125 µg/mL (≈ 0.548 µM)
[1]; C. difficile CD-12, read-out: minimum inhibitory concentration (MIC)
  MIC: 0.25 µg/mL (≈ 1.1 µM)
[1]; C. difficile CD-13, read-out: minimum inhibitory concentration (MIC)
  MIC: 0.25 µg/mL (≈ 1.1 µM)
[1]; C. difficile CD-15, read-out: minimum inhibitory concentration (MIC)
  MIC: 0.125 µg/mL (≈ 0.548 µM)
[1]; C. difficile CD-22, read-out: minimum inhibitory concentration (MIC)
  MIC: 0.125 µg/mL (≈ 0.548 µM)
[1]; C. difficile CD-23, read-out: minimum inhibitory concentration (MIC)
  MIC: 0.125 µg/mL (≈ 0.548 µM)
[1]; C. difficile CD-24, read-out: minimum inhibitory concentration (MIC)
  MIC: 0.06 µg/mL (≈ 0.263 µM)
[1]; C. difficile CD-26 (Ribotype-027), read-out: minimum inhibitory concentration (MIC)
  MIC: 0.125 µg/mL (≈ 0.548 µM)
[1]; C. difficile CD-28, read-out: minimum inhibitory concentration (MIC)
  MIC: 0.125 µg/mL (≈ 0.548 µM)
[1]; C. difficile CD-29 (Ribotype-027), read-out: minimum inhibitory concentration (MIC)
  MIC: 0.06 µg/mL (≈ 0.263 µM)
[1]; C. difficile CD-30, read-out: minimum inhibitory concentration (MIC)
  MIC: 0.5 µg/mL (≈ 2.19 µM)
[1]; C. difficile NR-49302, read-out: minimum inhibitory concentration (MIC)
  MIC: 0.125 µg/mL (≈ 0.548 µM)
[1]; C. difficile NR-49304, read-out: minimum inhibitory concentration (MIC)
  MIC: 0.06 µg/mL (≈ 0.263 µM)
[1]; C. difficile NR-49308, read-out: minimum inhibitory concentration (MIC)
  MIC: 0.06 µg/mL (≈ 0.263 µM)
[1]; C. difficile NR-49319, read-out: minimum inhibitory concentration (MIC)
  MIC: 0.06 µg/mL (≈ 0.263 µM)
[1]; read-out: MIC50
  MIC50: 0.125 µg/mL (≈ 0.548 µM)
[1]; concentration that inhibited 90% of the 20 C. difficile clinical isolates, read-out: MIC90
  MIC90: 0.25 µg/mL (≈ 1.1 µM)
[2]; B. fragilis HM- 709, BHIS broth, anaerobic
  MIC: ≤ 2 µg/mL
[2]; B. fragilis HM- 718, BHIS broth, anaerobic
  MIC: ≤ 2 µg/mL
[3]; B. dorei HM- 719, BHIS broth, anaerobic
  MIC: ≤ 2 µg/mL
[4]; ATCC15700, Bif. breve ATCC 15700, BHIS broth, anaerobic, read-out: minimum inhibitory concentration (MIC)
  MIC: > 256 µg/mL
[5]; Bif. angulatum HM- 1189, BHIS broth, anaerobic
  MIC: 32 µg/mL (≈ 140 µM)
[6]; Bif. adolescentis HM- 633, BHIS broth, anaerobic
  MIC: 32 µg/mL (≈ 140 µM)
[7]; Bif. longum HM- 845, BHIS broth, anaerobic
  MIC: 128 µg/mL (≈ 561 µM)
[7]; Bif. longum HM- 846, BHIS broth, anaerobic
  MIC: 32 µg/mL (≈ 140 µM)
[7]; Bif. longum HM- 847, BHIS broth, anaerobic
  MIC: 64 µg/mL (≈ 281 µM)
[7]; Bif. longum HM- 848, BHIS broth, anaerobic
  MIC: 64 µg/mL (≈ 281 µM)
[8]; E. faecium HM-202, TSB, aerobic
  MIC: > 256 µg/mL
[9]; E. fecalis HM-970, TSB, aerobic
  MIC: 128 µg/mL (≈ 561 µM)
[10]; ATCC334, L. casei ATCC 334, MRS broth, 5% CO2, read-out: minimum inhibitory concentration (MIC)
  MIC: > 256 µg/mL
[11]; ATCC14864, L. brevis ATCC-14864, MRS broth, 5% CO2, read-out: minimum inhibitory concentration (MIC)
  MIC: > 256 µg/mL
[12]; ATCC53103, L. rhamanosus ATCC-53103, MRS broth, 5% CO2, read-out: minimum inhibitory concentration (MIC)
  MIC: > 256 µg/mL
[14]; [15]
  MIC (μM): 2 µM
  MIC: 0.91 µg/mL

## Ivermectin
[14]; [15]
  MIC (μM): 16 µM
  MIC (μg/mL): 14 µg/mL
